Reference: PubChem BioAssay (NCI)
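The compound was tested at five concentrations on cells cultured in 96-well plates, with a 48-hour exposure period. Definition used: TGI = concentration required for complete inhibition of growth.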

Legend:
Assay in all cases: NCI-60 cell line screen, 48 h
HL-60(TB) leukemia = test system: HL-60(TB) leukemia
786-0 renal = test system: 786-0 renal
OVCAR-3 ovarian = test system: OVCAR-3 ovarian
OVCAR-5 ovarian = test system: OVCAR-5 ovarian
SF-268 CNS = test system: SF-268 CNS
SK-MEL-28 melanoma = test system: SK-MEL-28 melanoma
HS 578T breast = test system: HS 578T breast
HCT-116 colon = test system: HCT-116 colon
M14 melanoma = test system: M14 melanoma
TK-10 renal = test system: TK-10 renal
DU-145 prostate = test system: DU-145 prostate
SF-295 CNS = test system: SF-295 CNS
IGROV1 ovarian = test system: IGROV1 ovarian
U251 CNS = test system: U251 CNS
UO-31 renal = test system: UO-31 renal
MDA-N = test system: MDA-N
UACC-62 melanoma = test system: UACC-62 melanoma
MALME-3M melanoma = test system: MALME-3M melanoma
KM12 colon = test system: KM12 colon
SF-539 CNS = test system: SF-539 CNS
SW-620 colon = test system: SW-620 colon
SNB-75 CNS = test system: SNB-75 CNS
K-562 leukemia = test system: K-562 leukemia
HCC-2998 colon = test system: HCC-2998 colon
CAKI-1 renal = test system: CAKI-1 renal
MOLT-4 leukemia = test system: MOLT-4 leukemia
HCT-15 colon = test system: HCT-15 colon
SNB-19 CNS = test system: SNB-19 CNS
T-47D breast = test system: T-47D breast
MDA-MB-231 breast = test system: MDA-MB-231 breast
OVCAR-4 ovarian = test system: OVCAR-4 ovarian
SN12C renal = test system: SN12C renal
NCI-H23 lung = test system: NCI-H23 lung
SK-MEL-5 melanoma = test system: SK-MEL-5 melanoma
A549 NSCLC = test system: A549 NSCLC
MCF7 breast = test system: MCF7 breast
HOP-62 NSCLC = test system: HOP-62 NSCLC
HOP-92 NSCLC = test system: HOP-92 NSCLC
RPMI-8226 leukemia = test system: RPMI-8226 leukemia
HT29 colon = test system: HT29 colon
PC-3 prostate = test system: PC-3 prostate
CCRF-CEM leukemia = test system: CCRF-CEM leukemia
LOX IMVI melanoma = test system: LOX IMVI melanoma
COLO 205 colon = test system: COLO 205 colon
A498 renal = test system: A498 renal
OVCAR-8 ovarian = test system: OVCAR-8 ovarian
SK-MEL-2 melanoma = test system: SK-MEL-2 melanoma
NCI-H460 lung = test system: NCI-H460 lung
NCI-H522 lung = test system: NCI-H522 lung
SR leukemia = test system: SR leukemia
BT-549 breast = test system: BT-549 breast
RXF 393 renal = test system: RXF 393 renal
UACC-257 melanoma = test system: UACC-257 melanoma
EKVX NSCLC = test system: EKVX NSCLC
SK-OV-3 ovarian = test system: SK-OV-3 ovarian
MDA-MB-435 = test system: MDA-MB-435
ACHN renal = test system: ACHN renal
NCI/ADR-RES ovarian = test system: NCI/ADR-RES ovarian
NCI-H226 lung = test system: NCI-H226 lung

`Clc1ccc(C(c2ccc(Cl)cc2)N2CCNCC2)cc1` showed a TGI (HL-60(TB) leukemia) of 4.57 µM, a TGI (786-0 renal) of 3.17 µM and a TGI (OVCAR-3 ovarian) of 4.13 µM. It also gave a TGI (OVCAR-5 ovarian) of 18.3 µM, a TGI (SF-268 CNS) of 19.7 µM and a TGI (SK-MEL-28 melanoma) of 3.45 µM. For the same compound, the TGI (HS 578T breast) was 7.89 µM, the TGI (HCT-116 colon) was 3.84 µM and the TGI (M14 melanoma) was 3.39 µM. It also gave a TGI (TK-10 renal) of 3.74 µM, a TGI (DU-145 prostate) of 7.07 µM and a TGI (SF-295 CNS) of 5.74 µM. The TGI (IGROV1 ovarian) was 3.17 µM, the TGI (U251 CNS) was 4.2 µM and the TGI (UO-31 renal) was 4.4 µM. The TGI (MDA-N) was 3.62 µM, the TGI (UACC-62 melanoma) was 3.55 µM and the TGI (MALME-3M melanoma) was 3.12 µM. It also gave a TGI (KM12 colon) of 3.63 µM, a TGI (SF-539 CNS) of 3.02 µM and a TGI (SW-620 colon) of 4.96 µM. It also gave a TGI (SNB-75 CNS) of 5.78 µM, a TGI (K-562 leukemia) of 3.76 µM and a TGI (HCC-2998 colon) of 3.05 µM. It also gave a TGI (CAKI-1 renal) of 17.4 µM, a TGI (MOLT-4 leukemia) of 5 µM and a TGI (HCT-15 colon) of 8.79 µM. It also gave a TGI (SNB-19 CNS) of 21.3 µM, a TGI (T-47D breast) of 5.25 µM and a TGI (MDA-MB-231 breast) of 4.4 µM. The TGI (OVCAR-4 ovarian) was 6.95 µM, the TGI (SN12C renal) was 8.52 µM and the TGI (NCI-H23 lung) was 21.6 µM. It also gave a TGI (SK-MEL-5 melanoma) of 3.64 µM, a TGI (A549 NSCLC) of 8.4 µM and a TGI (MCF7 breast) of 3.86 µM. For the same compound, the TGI (HOP-62 NSCLC) was 3.71 µM, the TGI (HOP-92 NSCLC) was 10.6 µM and the TGI (RPMI-8226 leukemia) was 4.66 µM. It also gave a TGI (HT29 colon) of 4.51 µM, a TGI (PC-3 prostate) of 7.15 µM and a TGI (CCRF-CEM leukemia) of 15.3 µM. The TGI (LOX IMVI melanoma) was 4.53 µM, the TGI (COLO 205 colon) was 4.28 µM and the TGI (A498 renal) was 4.2 µM. It also gave a TGI (OVCAR-8 ovarian) of 3.28 µM, a TGI (SK-MEL-2 melanoma) of 3.63 µM and a TGI (NCI-H460 lung) of 4.65 µM. It also gave a TGI (NCI-H522 lung) of 3.46 µM, a TGI (SR leukemia) of 4.41 µM and a TGI (BT-549 breast) of 38.3 µM. For the same compound, the TGI (RXF 393 renal) was 9.75 µM, the TGI (UACC-257 melanoma) was 4.62 µM and the TGI (EKVX NSCLC) was 10.4 µM. It also gave a TGI (SK-OV-3 ovarian) of over 44.3 µM, a TGI (MDA-MB-435) of 3.63 µM and a TGI (ACHN renal) of 5.74 µM. It also gave a TGI (NCI/ADR-RES ovarian) of 13.6 µM.
Work on `COc1ccc2oc(=Nc3ccc(F)cc3)c(C(N)=O)cc2c1` yielded a TGI (HL-60(TB) leukemia) of over 100 µM, a TGI (786-0 renal) of 40.4 µM and a TGI (OVCAR-3 ovarian) of over 100 µM. For the same compound, the TGI (OVCAR-5 ovarian) was over 100 µM, the TGI (SF-268 CNS) was over 100 µM and the TGI (SK-MEL-28 melanoma) was over 100 µM. The TGI (HS 578T breast) was over 100 µM, the TGI (HCT-116 colon) was over 100 µM and the TGI (M14 melanoma) was over 100 µM. For the same compound, the TGI (TK-10 renal) was 58 µM, the TGI (DU-145 prostate) was over 100 µM and the TGI (SF-295 CNS) was over 100 µM. It also gave a TGI (IGROV1 ovarian) of over 100 µM, a TGI (U251 CNS) of over 100 µM and a TGI (UO-31 renal) of over 100 µM. It also gave a TGI (MDA-N) of over 100 µM, a TGI (UACC-62 melanoma) of over 100 µM and a TGI (NCI-H226 lung) of over 100 µM. The TGI (MALME-3M melanoma) was over 100 µM, the TGI (KM12 colon) was over 100 µM and the TGI (SW-620 colon) was over 100 µM. The TGI (SNB-75 CNS) was 29.5 µM, the TGI (K-562 leukemia) was over 100 µM and the TGI (HCC-2998 colon) was over 100 µM. It also gave a TGI (CAKI-1 renal) of over 100 µM, a TGI (MOLT-4 leukemia) of over 100 µM and a TGI (HCT-15 colon) of over 100 µM. The TGI (SNB-19 CNS) was over 100 µM, the TGI (T-47D breast) was 94.8 µM and the TGI (MDA-MB-231 breast) was 39.3 µM. The TGI (OVCAR-4 ovarian) was over 100 µM, the TGI (SN12C renal) was over 100 µM and the TGI (NCI-H23 lung) was over 100 µM. For the same compound, the TGI (SK-MEL-5 melanoma) was over 100 µM, the TGI (A549 NSCLC) was over 100 µM and the TGI (MCF7 breast) was over 100 µM. It also gave a TGI (HOP-62 NSCLC) of over 100 µM, a TGI (HOP-92 NSCLC) of 95.5 µM and a TGI (RPMI-8226 leukemia) of over 100 µM. For the same compound, the TGI (HT29 colon) was over 100 µM, the TGI (PC-3 prostate) was over 100 µM and the TGI (CCRF-CEM leukemia) was over 100 µM. The TGI (LOX IMVI melanoma) was over 100 µM, the TGI (COLO 205 colon) was over 100 µM and the TGI (A498 renal) was 58.7 µM. For the same compound, the TGI (OVCAR-8 ovarian) was over 100 µM, the TGI (SK-MEL-2 melanoma) was 74.7 µM and the TGI (NCI-H460 lung) was over 100 µM. For the same compound, the TGI (NCI-H522 lung) was over 100 µM, the TGI (SR leukemia) was over 100 µM and the TGI (BT-549 breast) was over 100 µM. The TGI (RXF 393 renal) was 37.3 µM, the TGI (UACC-257 melanoma) was over 100 µM and the TGI (EKVX NSCLC) was over 100 µM. It also gave a TGI (SK-OV-3 ovarian) of 52.1 µM, a TGI (MDA-MB-435) of over 100 µM and a TGI (ACHN renal) of over 100 µM. For the same compound, the TGI (NCI/ADR-RES ovarian) was over 100 µM.
